Experiments:
[1] = test system: mouse model of cerebral ischemia (MCAO); stroke-induced immunodepression and bacterial infection; assay: Immunomodulating therapy in mouse model of cerebral ischemia (MCAO): lymphopenia, lymphocyte/monocyte function, infections, survival; type: in vivo
Protocol: (§1) According to the mouse model of cerebral ischemia, mice were operated according to the MCAO. In this operation, the A. cerebri media is occluded for about 60 minutes, leading to a cerebral infarction typical for this model. As a control, we use the so-called Sham-operation, in which the animals are also MCAO-operated, but in which the A. cerebri media is only occluded for about 1 minute. For the rest, the two paradigms are identical. Thus, the perioperative stress can be doubtlessly excluded as a systemic mistake for the following results.
This severe lymphopenia persists at least for 14 days and also affects the spleen and the thymus (FIG. 6:d-g), which constitute essential organs of immunological maturation. Besides the mere numeric decrease, there also occurs a functional impairment with a disturbance of the cytokine secretion capacity after stimulation (FIG. 6: h and j). Besides the disturbance of monocyte function, which manifests as a disturbance of TNF-α secretion for 2 days after LPS-stimulation, one can also detect a lymphocyte alteration after ConA-stimulation; this alteration persisting for 14 days after the stroke and mainly causing a Th1- to Th2-shift (alteration of the IFN-γ/IL4 ratio), which means a loss of pro-inflammatory potential. […] B- and NK-cells only slightly decrease in the blood after the OP-stress. In the spleen and in the thymus, no major stress-induced alterations are detected and the functional parameters of the monocytes and lymphocytes remain at the control level. […] In contrast to this, no infection is found in the control animals (Sham-operated).
Furthermore, the blockade of the SNS by propranolol (30 mg/kg body weight) also prevents the disturbance of function of the remaining monocytes (TNF-α secretion) and of the lymphocytes (IFN-γ/IL-4 ratio) (FIG. 7). The SNS blockade can also prevent the development of infections in the lung (pneumonia) and in the blood (sepsis) (FIG. 7). The dose of propranolol (indicated as mg/kg body weight), which is required for the prevention or drastic reduction of the bacterial infections, also prevents the disturbed INF-γ secretion of the lymphocytes (FIG. 8). To this aim, the administration of propranolol has to be accomplished at a very early stage (immediately up to 12 hours) after the stroke. An application 24 hours after the stroke event has no effect (FIG. 8). An early (before the stroke) chemical sympathicolysis by 6-hydroxydopamin (6-OHDA) as well prevents the stroke-induced, disturbed INF-γ function of the lymphocytes and blocks the severe bacterial infections (FIG. 8).

[2] = test system: mouse model of cerebral ischemia (MCAO); stroke-induced spontaneous bacterial infection (more than 95% Escherichia coli)
Protocol: as §1, with “ischemia, a generally accepted model of ischemic stroke,” for “ischemia,”, “identical.” for “identical. Thus, the perioperative stress can be doubtlessly excluded as a systemic mistake for the following results.”

[3] = early (before the stroke) chemical sympathicolysis, FIG. 8
[4] = after experimental stroke in mice, FIG. 7

## NCCc1cc(O)c(O)cc1O [6-hydroxydopamin (6-OHDA), 6-hydroxydopamin]
[1]; [3]
  severe bacterial infections: blocks
  stroke-induced, disturbed INF-γ function of the lymphocytes: prevents

## COc1c(N2C[C@@H]3CCCN[C@@H]3C2)c(F)cc2c(=O)c(C(=O)O)cn(C3CC3)c12 [moxifloxacin, 1-cyclopropyl-6-fluoro-1,4-dihydro-8-methoxy-7-[(4aS,7aS)-octahydro-6H-pyrrolo[3,4-b]-pyridin-6-yl]-4-oxoquinoline-3-carboxylic acid]
[2]; early administration within the first 24 h
  neurological deficit: drastically reduced
[2]; very early (0-12 h) and somewhat later (12-24 h after acute stroke) treatment scheme
  infections (pneumonia, sepsis): prevented
[2]; very early (0-12 h) and somewhat later (12-24 h after acute stroke) treatment scheme, FIG. 3
  fever/hyperthermia: significantly reduced
[2]; very early (0-12 h) and somewhat later (12-24 h after acute stroke) treatment scheme, FIG. 5
  neurological deficit after stroke: significantly reduced

## CC(C)NCC(O)COc1cccc2ccccc12 (centres unmarked) [propranolol]
[1]; 30 mg/kg body weight, FIG. 7
  disturbance of function of the lymphocytes (IFN-γ/IL-4 ratio): prevents
  disturbance of function of the remaining monocytes (TNF-α secretion): prevents
[1]; 30 mg/kg body weight, FIG. 10
  survival after stroke: drastically improve
[1]; 30 mg/kg body weight, FIGS. 7 and 8
  infections: prevent
[1]; SNS blockade, FIG. 7
  development of infections in the lung (pneumonia) and in the blood (sepsis): prevent
[1]; [4]
  decrease of T- and NK-cells: prevent
  degree of B-cell lymphopenia: significantly reduce
[1]; application 24 hours after the stroke, FIG. 8
  effect on bacterial infections and INF-γ secretion of application 24 hours after the stroke event: no effect
[1]; dose required for prevention of bacterial infections, administration immediately up to 12 hours after the stroke, FIG. 8
  disturbed INF-γ secretion of the lymphocytes: prevents

B1: IFN-γ: pro-inflammatory cytokine, interferon (protein, UniProt P01579 24-161, looked up)
Interferon gamma: QDPYVKEAENLKKYFNAGHSDVADNGTLFLGILKNWKEESDRKIMQSQIVSFYFKLFKNFKDDQSIQKSVETIKEDMNVKFFNSNKKKRDDFEKLTNYSVTDLNVQRKAIHELIQVMAELSPAAKTGKRKRSQMLFRG
[1]; 2 μg, FIG. 9
  germ number in the lung: reduce
[1]; 2 μg, even more pronounced than in the lung, FIG. 9
  germ number in the blood: reduce

From US8673934B2, “Anti-infective agents and/or immunomodulators used for preventive therapy following an acute cerebrovascular accident” (priority 2002, dated 2014)
